The values that follow come from patent US20210113696A1, “IONIC LIQUID COMPOSITIONS FOR TREATMENT OF ROSACEA” (CAGE BIO INC., priority 2018, published 2021).

Data set [1] in a line: Conductivity measurement in solvents, solvent blends and gel bases. It is filed as physicochemical. How it is done:
Conductivity in mixtures of a solvent in combination with choline and geranic acid were done separately. […]
Ethanol: Samples were made by first starting with 5 grams of each raw material; geranic acid first then repeated with choline (bicarbonate). In summary 1-3 grams of […] was added to the raw material being tested and mixed. A visual observation was made along with a conductivity measurement. […]
(§1) The solvents investigated included: water, propylene glycol, glycerin, PEG400, ethanol, diisopropyl adipate, mineral oil, propylene glycol/ethanol/water, and glycerin/PEGG400/water. […] Observations were taken at each concentration. Conductivity measurements were taken at each titrated point for information only at this stage. Scales on subsequent graphs are appropriate for each solvent's values.
(§2) A visual observation was made along with a conductivity measurement. The process was continued until ˜25 grams of product was reached. The resulting product was stored for later evaluation.
as §2, §2, §2, §2
A visual observation was made along with a conductivity measurement. The process was continued until ˜25 grams of product was reached. The resulting product was stored for later evaluation. […]
(§3) The conductivity is shown in FIG. 32 and the appearance is described in Table 28.

A short description of data set [2]: Visual observation of appearance (solubility, miscibility) in solvents, solvent blends and gel bases. It is filed as physicochemical. How it is done:
Conductivity in mixtures of a solvent in combination with choline and geranic acid were done separately.
Propylene glycol: Samples were made by first starting with 5 grams of each raw material; geranic acid first then repeated with choline (bicarbonate). In summary 1-3 grams of propylene glycol was added to the raw material being tested and mixed. A visual observation was made along with a conductivity measurement.
Ethanol: Samples were made by first starting with 5 grams of each raw material; geranic acid first then repeated with choline (bicarbonate). In summary 1-3 grams of propylene glycol was added to the raw material being tested and mixed. A visual observation was made along with a conductivity measurement.
Diisopropyl adipate: Samples were made by first starting with 5 grams of each raw material; geranic acid first then repeated with choline (bicarbonate). In summary, 1-3 grams of […] was added to the raw material being tested and mixed. A visual observation was made along with a conductivity measurement.
as §1
No conductivity measurements were taken.
as §2, §2, §2, §2, §2, §2
1-3 grams of water was added and mixed. A visual observation was made along with a conductivity measurement. The process was continued until ˜16 grams of product was reached. The resulting product was stored for later evaluation.
1-3 grams of water was added and mixed. A visual observation was made along with a conductivity measurement. The process was continued until ˜20 grams of product was reached. The resulting product was stored for later evaluation. […]
A similar experiment with the propylene glycol formulation was performed. The results are shown in Table 23, Table 24, and FIG. 28.
as §3

[3] abbreviates: 19% geranic acid, 81% ethanol 200 proof.
Setting [4] is: 20% geranic acid, 80% ethanol 200 proof.
Setting [5] is: 22% geranic acid, 78% ethanol 200 proof.
The mark [6] stands for this setting: 24% geranic acid, 76% ethanol 200 proof.
Setting [7] is: 26% geranic acid, 74% ethanol 200 proof.
Where [8] appears, read: 29% geranic acid, 71% ethanol 200 proof.
Where [9] appears, read: 33% geranic acid, 67% ethanol 200 proof.
The mark [10] stands for this setting: 36% geranic acid, 64% propylene glycol.
Setting [11] is: 38% geranic acid, 62% ethanol 200 proof.
[12] abbreviates: 45% geranic acid, 55% ethanol 200 proof.
[13] abbreviates: 56% geranic acid, 44% ethanol 200 proof.
The mark [14] stands for this setting: 56% geranic acid, 44% propylene glycol.
Setting [15] is: 71% geranic acid, 29% ethanol 200 proof.
[16] abbreviates: 71% geranic acid, 29% propylene glycol.
Where [17] appears, read: 71.43% geranic acid, 28.57% diisopropyl adipate.
Where [18] appears, read: 83% geranic acid, 17% ethanol 200 proof.
[19] abbreviates: 83% geranic acid, 17% propylene glycol.
Where [20] appears, read: 83.33% geranic acid, 16.67% diisopropyl adipate.
[21] abbreviates: 100.00% geranic acid, 0.00% diisopropyl adipate.
Where [22] appears, read: 100% geranic acid, 0% ethanol 200 proof.
Setting [23] is: 100% geranic acid, 0% propylene glycol.

Turning to `CC(C)=CCC/C(C)=C/C(=O)O` [Geranic Acid, 3,7-dimethyl-2,6-octadienoic acid], the Conductivity in data set [1] (setting [3]) was determined as 0.00064 mS/cm; in data set [1] (setting [4]) it was 0.00064 mS/cm; in data set [1] (setting [5]), 0.00066 mS/cm; in data set [1] (setting [6]) it was 0.00068 mS/cm; in data set [1] (setting [7]), 0.00072 mS/cm; in data set [1] (setting [8]), 0.00074 mS/cm. The Conductivity in data set [1] (setting [9]) is given as 0.00083 mS/cm; in data set [1] (setting [10]), 0.00009 mS/cm; in data set [1] (setting [11]), 0.00061 mS/cm; in data set [1] (setting [12]), 0.00048 mS/cm; in data set [1] (setting [13]), 0.00022 mS/cm; in data set [1] (setting [14]), 0.00008 mS/cm. The Conductivity turned out to be 0.00003 mS/cm in data set [1] (setting [15]); 0.00008 mS/cm in data set [1] (setting [16]); 0 mS/cm in data set [1] (setting [17]); 0.00001 mS/cm in data set [1] (setting [18]); 0.00000 mS/cm in data set [1] (setting [19]); 0 mS/cm in data set [1] (setting [20]). Moreover, the values for the Conductivity in data set [1] (setting [21]), in data set [1] (setting [22]) and in data set [1] (setting [23]) were 0 mS/cm, 0.00000 mS/cm and 0.00000 mS/cm, respectively. The “contribution to the overall conductivity” value in data set [1] (mixtures with solvent) is on record as “effectively zero”. Moreover, the Appearance entry in data set [2] (setting [3]), in data set [2] (setting [4]), in data set [2] (setting [5]), in data set [2] (setting [6]), in data set [2] (setting [7]) and in data set [2] (setting [8]) was “Clear solution” each time. Also, the Appearance result in data set [2] (setting [9]), in data set [2] (setting [10]), in data set [2] (setting [11]), in data set [2] (setting [12]), in data set [2] (setting [13]) and in data set [2] (setting [14]) was “Clear solution” in each case. In addition, the Appearance entry in data set [2] (setting [15]), in data set [2] (setting [16]), in data set [2] (setting [17]), in data set [2] (setting [18]), in data set [2] (setting [19]) and in data set [2] (setting [20]) was “Clear solution” throughout. The Appearance result in data set [2] (setting [21]), in data set [2] (setting [22]) and in data set [2] (setting [23]) was “Clear solution” in each case.
In the case of `C[N+](C)(C)CCO` [Choline Bicarbonate, choline bicarbonate], in data set [2], the “miscibility with diisopropyl adipate” value was “not miscible”.
